Our source for the IC50 values is patent publication US20210115044A1, “TRICYCLIC HETEROCYCLE COMPOUNDS USEFUL AS HIV INTEGRASE INHIBITORS” (Merck Sharp & Dohme Corp., priority 2018, published 2021).

Like-named read-outs stand apart in the source and are kept apart here.

This test relates to HIV-1 (H9/IIIB strain). Put plainly: Multiple round HIV-1 infection assay in MT4-GFP cells (wild type cell assay, Viking). The test is classed as cell-based. As to conditions: MT4-GFP cells infected with HIV-1 H9/IIIB, inhibition of reproductive ratio R0, ~48 h and ~72 h post-infection. The protocol:
The antiviral activity of the Examples herein was assessed in an assay that measures the rate of replication of HIV in cell culture, and performed according to the following procedure. HIV-1 replication was monitored using MT4-gag-GFP clone D3 (hereafter designated MT4-GFP), which are MT-4 cells modified to harbor a GFP reporter gene, the expression of which is dependent on the HIV-1 expressed proteins tat and rev. Productive infection of an MT4-GFP cell with HIV-1 results in GFP expression approximately 24 h post-infection. MT4-GFP cells were maintained at 37° C./5% CO2/90% relative humidity in RPMI 1640 supplemented with 10% fetal bovine serum, 100 U/ml penicillin/streptomycin, and 400 μg/ml G418 to maintain the reporter gene. For infections, MT4-GFP cells were placed in the same medium lacking G418 and infected overnight with HIV-1 (H9/IIIB strain) virus at an approximate multiplicity of infection of 0.01 in the same incubation conditions. Cells were then washed and re-suspended in either RPMI 1640 at 2×10^5 cells/mL (0% NHS condition) or 100% normal human serum (NHS) at 2×10^5 cells/mL (100% NHS condition). Compound plates were prepared by dispensing compounds dissolved in DMSO into wells of 384 well poly-D-lysine-coated plates (0.2 μl/well) using an ECHO acoustic dispenser. Each compound was tested in a 10-point serial 3-fold dilution (typical final concentrations: 1050 nM-0.05 nM for 0% NHS condition or 42 μM-2.13 nM for 100% NHS condition). Controls included no inhibitor (DMSO only) and a combination of three antiviral agents (efavirenz, indinavir, an in-house integrase strand transfer inhibitor at final concentrations of 4 μM each). Cells were added ([…]) to compound plates and the infected cells were maintained at 37° C./5% CO2/90% relative humidity.
Infected cells were quantified at two time points, ˜48 h and ˜72 h post-infection, by counting the number of green cells in each well using an Acumen eX3 scanner. The increase in the number of green cells over ˜24 h period gives the reproductive ratio, R0, which is typically 5-15 and has been shown experimentally to be in logarithmic phase (data not shown). Inhibition of R0 is calculated for each well, and IC50s determined by non-linear 4-parameter curve fitting.

[1] abbreviates: Human immunodeficiency virus 1, IIIB, 0% NHS condition (RPMI 1640), read-out: WILD TYPE CELL ASSAY Viking IP (0% NHS).
The mark [2] stands for this setting: 100% normal human serum condition, read-out: WILD TYPE CELL ASSAY Viking IP (100% NHS).
Setting [3] is: 0% NHS condition (RPMI 1640), read-out: WILD TYPE CELL ASSAY Viking IP (0% NHS).

Turning to `CCC12CC(O)c3c(C(=O)NCc4c(F)cc(F)cc4F)c(=O)c(O)c(n31)C(=O)N(C)C2` (single isomer, unassigned) [Compound 45], the IC50 reads like this: under setting [1], 1.1 nM; under setting [2], 17.9 nM.

Turning to `CCC12CC(O)c3c(C(=O)NCc4c(F)cc(F)cc4F)c(=O)c(O)c(n31)C(=O)N(C)C2` (single isomer, unassigned) [Compound 46], the IC50 reads like this: under setting [3], 1.6 nM; under setting [2], 36.8 nM.

For `CCC12CC(O)c3c(C(=O)NCc4c(F)ccc(F)c4F)c(=O)c(O)c(n31)C(=O)N(C)C2` (single isomer, unassigned) [Compound 49], the IC50 came out at 2.6 nM under setting [1] and 1020 nM under setting [2].

On to `CCC12CC(O)c3c(C(=O)NCc4c(F)ccc(F)c4F)c(=O)c(O)c(n31)C(=O)N(C)C2` (single isomer, unassigned) [Compound 50], for which the IC50 by setting is: under setting [3], 2.9 nM; under setting [2], 25.5 nM.

Consider `CCC12CC(O)c3c(C(=O)NCc4c(F)ccc(Cl)c4F)c(=O)c(O)c(n31)C(=O)N(C)C2` (single isomer, unassigned) [Compound 53], for which the IC50 by setting is: under setting [1], 2.6 nM; under setting [2], 4370 nM.

Turning to `CCC12CC(O)c3c(C(=O)NCc4c(F)ccc(Cl)c4F)c(=O)c(O)c(n31)C(=O)N(C)C2` (single isomer, unassigned) [Compound 54], the IC50 runs as follows: under setting [3], 2.8 nM; under setting [2], 29.5 nM.

As to `CCN1CC2(COC)CC(O)c3c(C(=O)NCc4ccc(F)cc4F)c(=O)c(O)c(n32)C1=O` (single isomer, unassigned) [Compound 57], the IC50 is 3.1 nM under setting [3] and 9970 nM under setting [2].

On to `CCN1CC2(COC)CC(O)c3c(C(=O)NCc4ccc(F)cc4F)c(=O)c(O)c(n32)C1=O` (single isomer, unassigned) [Compound 58], for which the IC50 came to 2.3 nM under setting [3] and 270 nM under setting [2].

As for `CCN1CC2(COC)CC(O)c3c(C(=O)NCc4ccc(F)cc4F)c(=O)c(O)c(n32)C1=O` (single isomer, unassigned) [Compound 59], the IC50 under setting [3] was 3.2 nM and the IC50 under setting [2] came to 106 nM.

On to `CCN1CC2(COC)CC(O)c3c(C(=O)NCc4ccc(F)cc4F)c(=O)c(O)c(n32)C1=O` (single isomer, unassigned) [Compound 60], for which the IC50 amounted to 7.1 nM under setting [3] and 1260 nM under setting [2].

As for `CCN1CC2(COC)CC(O)c3c(C(=O)NCc4c(F)cc(F)cc4F)c(=O)c(O)c(n32)C1=O` (single isomer, unassigned) [Compound 61], the IC50 is, setting by setting: under setting [1], 2.3 nM; (Human immunodeficiency virus 1, IIIB, 100% normal human serum condition, read-out: WILD TYPE CELL ASSAY Viking IP (100% NHS)) 95.9 nM.

As to `CCN1CC2(COC)CC(O)c3c(C(=O)NCc4c(F)cc(F)cc4F)c(=O)c(O)c(n32)C1=O` (single isomer, unassigned) [Compound 62], the IC50 under setting [3] came out at 2.4 nM and the IC50 under setting [2] is 60.5 nM.

As for `CC1N(C)C(=O)c2c(O)c(=O)c(C(=O)NCc3ccc(F)cc3F)c3n2C1(C)CC3O` (single isomer, unassigned) [Compound 65], the IC50 runs as follows: under setting [3], 1.7 nM; under setting [2], 107 nM.

For the compound `CC1N(C)C(=O)c2c(O)c(=O)c(C(=O)NCc3ccc(F)cc3F)c3n2C1(C)CC3O` (single isomer, unassigned) [Compound 66], the IC50 runs as follows: under setting [3], 1.4 nM; under setting [2], 32.3 nM.

`CC1N(C)C(=O)c2c(O)c(=O)c(C(=O)NCc3ccc(F)cc3F)c3n2C1(C)CC3O` (single isomer, unassigned) [Compound 67]: the IC50 was determined as 2.3 nM under setting [3] and 82.8 nM under setting [2].

As to `CC1N(C)C(=O)c2c(O)c(=O)c(C(=O)NCc3ccc(F)cc3F)c3n2C1(C)CC3O` (single isomer, unassigned) [Compound 68], the IC50 came to 2.4 nM under setting [3] and 45.5 nM under setting [2].

As for `CC1N(C)C(=O)c2c(O)c(=O)c(C(=O)NCc3ccc(F)cc3F)c3n2C1(C)CC3O` (single isomer, unassigned) [Compound 69], the IC50 turned out to be 1.9 nM under setting [3] and 77.5 nM under setting [2].
